According to ChEMBL document CHEMBL5726776, “3,5-diamino-6-chloro-N-(N-(4-phenylbutyl)carbamimidoyl) pyrazine-2-carboxamide compounds” (2019):

Assay: In Vitro Measure of Sodium Channel Blocking Activity and Reversibility: One assay used to assess mechanism of action and/or potency of the compounds of the present invention involves the determination of lumenal drug inhibition of airway epithelial sodium currents measured under short circuit current (ISC) using airway epithelial monolayers mounted in Using chambers. This assay is described in detail in Hirsh, A. J., Zhang, J., Zamurs, A., et al. Pharmacological properties of N-(3,5-diamino-6-chloropyrazine-2-carbonyl)-N′-4-[4-(2,3-dihydroxypropoxy)phenyl]butyl-guanidine methanesulfonate (552-02), a novel epithelial sodium channel blocker with potential clinical efficacy for CF lung disease. J. Pharmacol. Exp. Ther. 2008; 325(1): 77-88. Cells obtained from freshly excised human, dog, sheep or rodent airways are seeded onto porous 0.4 micron Snapwell™ Inserts (CoStar), cultured at air-liquid interface (ALI) conditions in hormonally defined media, and assayed for sodium transport activity (ISC) while bathed in Krebs Bicarbonate Ringer (KBR) in Using chambers. All test drug additions are to the lumenal bath with half-log dose addition protocols (from 1×10−11 M to 3×10−5 M), and the cumulative change in ISC (inhibition) recorded. All drugs are prepared in dimethyl sulfoxide as stock solutions at a concentration of 1×10−2 M and stored at −20° C. […] After the maximal concentration ([…]) is administered, the lumenal bath is exchanged three times with fresh drug-free KBR solution, and the resultant ISC measured after each wash for approximately 5 minutes in duration. Reversibility is defined as the percent return to the baseline value for sodium current after the third wash. All data from the voltage clamps are collected via a computer interface and analyzed off-line.Dose-effect relationships for all compounds are considered and analyzed by the Prism 3.0 program.

Row | SMILES | IC50
1 | N=C(NCCCCc1ccc(CC[C@H](NCCCN(C[C@H](O)[C@@H](O)[C@H](O)[C@H](O)CO)C[C@H](O)[C@@H](O)[C@H](O)[C@H](O)CO)C(N)=O)c2c1CCCC2)NC(=O)c1nc(Cl)c(N)nc1N | 7.3 nM
2 | N=C(NCCCCc1ccc(CC[C@H](NCCCN(C[C@H](O)[C@@H](O)[C@H](O)[C@H](O)CO)C[C@H](O)[C@@H](O)[C@H](O)[C@H](O)CO)C(N)=O)cc1)NC(=O)c1nc(Cl)c(N)nc1N | 10.6 nM
3 | CCCCCCN(CCCN[C@@H](CCc1ccc(CCCCNC(=N)NC(=O)c2nc(Cl)c(N)nc2N)cc1)C(N)=O)C[C@H](O)[C@@H](O)[C@H](O)[C@H](O)CO | 2.6 nM
4 | N=C(NCCCCc1ccc2cc(CC[C@H](NCCCN(C[C@H](O)[C@@H](O)[C@H](O)[C@H](O)CO)C[C@H](O)[C@@H](O)[C@H](O)[C@H](O)CO)C(N)=O)ccc2c1)NC(=O)c1nc(Cl)c(N)nc1N | 12.5 nM
5 | N=C(NCCCCc1ccc(C[C@H](NCCCN(C[C@H](O)[C@@H](O)[C@H](O)[C@H](O)CO)C[C@H](O)[C@@H](O)[C@H](O)[C@H](O)CO)C(N)=O)cc1)NC(=O)c1nc(Cl)c(N)nc1N | 35.6 nM
6 | CCCCCCN(CCCN[C@@H](Cc1ccc(CCCCNC(=N)NC(=O)c2nc(Cl)c(N)nc2N)cc1)C(N)=O)C[C@H](O)[C@@H](O)[C@H](O)[C@H](O)CO | 2.9 nM
7 | N=C(NCCCCc1ccc(C[C@H](NCCCN(C[C@H](O)[C@@H](O)[C@H](O)[C@H](O)CO)C[C@H](O)[C@@H](O)[C@H](O)[C@H](O)CO)C(N)=O)c2c1CCCC2)NC(=O)c1nc(Cl)c(N)nc1N | 5.5 nM
8 | CCCCCCN(CCCN[C@@H](CCc1ccc(CCCCNC(=N)NC(=O)c2nc(Cl)c(N)nc2N)c2ccccc12)C(N)=O)C[C@H](O)[C@@H](O)[C@H](O)[C@H](O)CO | 14.3 nM
9 | CCCCCCN(CCCN[C@@H](Cc1ccc(CCCCNC(=N)NC(=O)c2nc(Cl)c(N)nc2N)c2ccccc12)C(N)=O)C[C@H](O)[C@@H](O)[C@H](O)[C@H](O)CO | 8.8 nM
10 | CCCCCCN(CCCN[C@@H](Cc1ccc(CCCCNC(=N)NC(=O)c2nc(Cl)c(N)nc2N)c2c1CCCC2)C(N)=O)C[C@H](O)[C@@H](O)[C@H](O)[C@H](O)CO | 8.4 nM
11 | CCCCCCN(CCCN[C@@H](CCc1ccc2cc(CCCCNC(=N)NC(=O)c3nc(Cl)c(N)nc3N)ccc2c1)C(N)=O)C[C@H](O)[C@@H](O)[C@H](O)[C@H](O)CO | 6 nM
12 | CCCCCCN(CCCN[C@@H](Cc1ccc2cc(CCCCNC(=N)NC(=O)c3nc(Cl)c(N)nc3N)ccc2c1)C(N)=O)C[C@H](O)[C@@H](O)[C@H](O)[C@H](O)CO | 11.3 nM
13 | N=C(NCCCCc1ccc(CC[C@H](NCCCN(C[C@H](O)[C@@H](O)[C@H](O)[C@H](O)CO)C[C@H](O)[C@@H](O)[C@H](O)[C@H](O)CO)C(N)=O)c2ccccc12)NC(=O)c1nc(Cl)c(N)nc1N | 24 nM
14 | N=C(NCCCCc1ccc2cc(C[C@H](NCCCN(C[C@H](O)[C@@H](O)[C@H](O)[C@H](O)CO)C[C@H](O)[C@@H](O)[C@H](O)[C@H](O)CO)C(N)=O)ccc2c1)NC(=O)c1nc(Cl)c(N)nc1N | 27.4 nM
15 | N=C(NCCCCc1ccc(C[C@H](NCCCN(C[C@H](O)[C@@H](O)[C@H](O)[C@H](O)CO)C[C@H](O)[C@@H](O)[C@H](O)[C@H](O)CO)C(N)=O)c2ccccc12)NC(=O)c1nc(Cl)c(N)nc1N | 40.8 nM
